According to ChEMBL document CHEMBL1201862, “PubChem BioAssay data set” (2004):
Several values for one entry are separate records, joined by “and”; a condition that tells them apart may be missing. Equal values may be shown once. Activity calls are given as the source filed them.

What was measured:
[1] = reduction of Shn3 3'UTR-driven luciferase in osteoblasts – cell-based, Clone20 osteoblasts, firefly luciferase, cherry-picked, dose response (AID 624132); type: functional;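 further: firefly luciferase luminescence from reporter carrying the Shn3 3'UTR in osteoblasts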
[2] = Shn3 3'UTR reporter signal decrease – cell-based, Clone20 osteoblasts, firefly luciferase, cherry-pick, set 2, Schnurri-3 inhibitor project, dose response (AID 720490); type: functional;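 further: actives lower the luminescence signal as inhibitors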
[3] = EF1alpha-driven Renilla reporter with control 3'UTR suppression – Clone20-Shn3RL cells, dual-Glo, cherry-pick, set 2, counter-screen for Shn3 3'UTR targeting project, dose response (AID 720724); type: functional, cell-based; conditions: Dual-Go Shn3RL
[4] = target: T1, Heat shock factor protein 1 (Mus musculus, UniProt P38532); assay: decrease of HSF1-responsive luciferase luminescence – cell-based, NIH3T3, dose retest, confirmation (AID 2382); type: functional;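 further: NIH3T3 fibroblasts with HSF1-driven luciferase reporter stressed by proteasome inhibitor MG132; luminescence from HSF1-driven luciferase expression after 8 hours of MG132 stress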
T1 sequence (P38532 whole entry): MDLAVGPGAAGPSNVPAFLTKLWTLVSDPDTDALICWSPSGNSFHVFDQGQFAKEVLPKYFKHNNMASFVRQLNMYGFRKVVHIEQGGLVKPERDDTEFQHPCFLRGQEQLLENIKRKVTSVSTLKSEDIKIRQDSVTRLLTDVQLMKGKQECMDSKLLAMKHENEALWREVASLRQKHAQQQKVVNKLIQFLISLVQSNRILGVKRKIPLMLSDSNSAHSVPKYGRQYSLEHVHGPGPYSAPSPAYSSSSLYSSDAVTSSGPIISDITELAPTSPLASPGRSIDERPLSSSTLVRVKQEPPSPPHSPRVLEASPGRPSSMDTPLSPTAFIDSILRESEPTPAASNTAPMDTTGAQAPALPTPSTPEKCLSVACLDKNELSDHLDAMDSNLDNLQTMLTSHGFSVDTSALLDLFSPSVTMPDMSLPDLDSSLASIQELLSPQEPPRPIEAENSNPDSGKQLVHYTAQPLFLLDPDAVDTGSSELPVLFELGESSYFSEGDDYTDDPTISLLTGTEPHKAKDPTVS

[5] = target: Neurotensin receptor type 1 (Homo sapiens, UniProt P30989); type: functional;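 further: Image-based confirmatory dose-response assay measuring agonist activity at NTR1; NTR1-expressing U2OS osteosarcoma cells imaged for beta-arrestin GFP spot formation; agonist potency where compounds increase beta-arrestin recruitment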
[6] = target: COUP transcription factor 2 (Homo sapiens, UniProt P24468); assay: Luminescence-based cell-based high throughput dose response assay to identify inhibitors of COUP-TFII (NR2F2).; type: functional;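 further: HEK293 cells transiently cotransfected with COUP-TFII expression vector and reporter; luciferase reporter luminescence driven by COUP-TFII from the pX2-168 reporter plasmid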
[7] = target: NAD-dependent protein deacylase sirtuin-5, mitochondrial (Homo sapiens, UniProt Q9NXA8); assay: sirtuin-5 deacylation blockers, concentration series – biochemical, fluorescence imaging, cherry-pick, set 5, dose response (AID 720591);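 further: desuccinylation of succinyl peptide AMC substrate read as fluorescence after trypsin release; potency of inhibitors that lower fluorescence and may act on trypsin instead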
[8] = viability loss in THP-1 monocytes – THP-1 cells, cytotoxicity control for Vif-APOBEC3G degradation inhibitor project, dose response (AID 1117359); type: functional; conditions: THP-1
[9] = target: 1-phosphatidylinositol 4,5-bisphosphate phosphodiesterase beta-3 (Homo sapiens, UniProt Q01970); assay: Fluorescence-based biochemical high throughput dose response assay to identify inhibitors of phospholipase C isozymes (PLC-B3).
[10] = target: T2, Histone-lysine N-methyltransferase NSD2 (Homo sapiens, UniProt O96028); type: biochemical
T2 sequence (O96028 whole entry): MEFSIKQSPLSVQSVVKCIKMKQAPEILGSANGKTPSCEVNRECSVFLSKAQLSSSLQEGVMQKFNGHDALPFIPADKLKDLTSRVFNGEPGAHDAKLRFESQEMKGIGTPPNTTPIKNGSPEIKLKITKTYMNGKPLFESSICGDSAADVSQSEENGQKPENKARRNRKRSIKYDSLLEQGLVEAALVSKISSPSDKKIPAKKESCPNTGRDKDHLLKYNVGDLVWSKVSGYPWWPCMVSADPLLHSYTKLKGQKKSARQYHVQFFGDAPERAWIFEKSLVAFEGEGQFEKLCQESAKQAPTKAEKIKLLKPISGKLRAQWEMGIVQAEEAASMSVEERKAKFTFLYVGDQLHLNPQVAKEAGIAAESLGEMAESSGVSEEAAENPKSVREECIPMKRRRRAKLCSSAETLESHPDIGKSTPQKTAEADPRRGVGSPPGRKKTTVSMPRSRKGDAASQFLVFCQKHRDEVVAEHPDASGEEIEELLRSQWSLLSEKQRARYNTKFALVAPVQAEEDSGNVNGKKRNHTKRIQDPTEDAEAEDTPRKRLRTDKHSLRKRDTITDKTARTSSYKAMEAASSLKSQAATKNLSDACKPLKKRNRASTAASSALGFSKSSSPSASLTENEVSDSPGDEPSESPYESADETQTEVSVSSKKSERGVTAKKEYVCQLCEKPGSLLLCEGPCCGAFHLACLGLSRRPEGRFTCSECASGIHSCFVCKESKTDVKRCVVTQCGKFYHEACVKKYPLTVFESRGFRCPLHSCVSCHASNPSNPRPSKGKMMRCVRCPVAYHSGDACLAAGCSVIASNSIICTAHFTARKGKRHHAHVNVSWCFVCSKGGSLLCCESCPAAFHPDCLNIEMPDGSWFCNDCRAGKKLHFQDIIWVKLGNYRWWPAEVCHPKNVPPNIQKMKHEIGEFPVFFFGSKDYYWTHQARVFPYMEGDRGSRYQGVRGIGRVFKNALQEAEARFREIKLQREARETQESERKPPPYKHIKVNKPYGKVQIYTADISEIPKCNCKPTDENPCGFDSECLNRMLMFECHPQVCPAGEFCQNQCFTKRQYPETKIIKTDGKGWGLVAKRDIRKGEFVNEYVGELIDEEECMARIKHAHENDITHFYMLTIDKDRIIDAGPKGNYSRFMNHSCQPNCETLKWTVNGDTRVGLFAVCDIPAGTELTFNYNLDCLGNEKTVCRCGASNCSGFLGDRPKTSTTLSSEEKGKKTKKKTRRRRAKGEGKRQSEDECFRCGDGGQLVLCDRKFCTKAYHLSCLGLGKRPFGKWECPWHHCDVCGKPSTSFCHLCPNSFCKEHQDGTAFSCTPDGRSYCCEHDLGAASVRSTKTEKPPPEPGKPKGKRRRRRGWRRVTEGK

[11] = target: 1-phosphatidylinositol 4,5-bisphosphate phosphodiesterase gamma-1 (Homo sapiens, UniProt P19174); assay: Counterscreen for inhibitors of phospholipase C isozymes (PLC-B3): Fluorescence-based biochemical high throughput dose response assay to identify inhibitors of phospholipase C isozymes (PLC-gamma1).
Transthyretin = Transthyretin (Homo sapiens, UniProt P02766); assay: Luminescence-based cell-based high throughput dose response assay to identify activators of Transthyretin (TTR) transcription.; type: functional
[12] = blockers of HIV-1 envelope-mediated cell-cell fusion – cherry-pick, dose response (AID 652057); type: functional, cell-based
[13] = Luminescence-based dose response cell-based high throughput screening assay for cytotoxic compounds using the IEC-6 intestinal epithelial cell line. [Related pubchem assays: 1858 (Summary AID.), 1825 (Counterscreen.), 1907 (Confirmation screen.)]; type: functional
HEK293 [14] = assay: cells; conditions: Homo sapiens
[15] = blockers of HIV-1 ZM109 envelope-driven cell-cell fusion – HeLa effector, CEM target cells, luciferase, cherry-pick, dose response (AID 652058); type: functional, cell-based;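 further: luciferase signal from HIV-1 Env mediated cell-cell fusion of effector and target cells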
[16] = microbe, parasite or virus in culture; type: functional; conditions: Mycobacterium tuberculosis
HEK293 [17] = assay: cells; conditions: Homo sapiens; remark: listed apart in the source
[18] = viability loss in CEM21 cells – cell-based, CellTiter-Glo luminescence, cherry-picked, cytotoxicity control for viral fusion inhibitor project, dose response (AID 652042); type: functional;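 further: potency for signal decrease meaning cytotoxicity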
[19] = target: RNA-editing ligase 1, mitochondrial (Trypanosoma brucei brucei, UniProt P86926); assay: inhibition of trypanosome RNA editing ligase – biochemical, fluorescence, Trypanosoma brucei, dose response (AID 1117295); type: functional
[20] = off-target signal loss in HeLa-CEM21 co-culture – HeLa F-luc CTL cells, cherry-picked, counter-screen for HIV-1 Env fusion inhibitor project, dose response (AID 652040); type: functional, cell-based;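 further: potency for signal decrease marking cytotoxic or nonspecific inhibition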
[21] = HIV-1 AD8 envelope cell-cell fusion blockers – cherry-pick, dose response (AID 652062); type: functional, cell-based;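 further: luciferase signal from cell-cell fusion driven by HIV-1 clade B AD8 Env; potency is for inhibitors of fusion seen as a drop in luminescence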
[22] = MIN6 cell viability loss – mouse insulinoma, cytotoxicity control, dose response (AID 2122); type: functional;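 further: confirmatory high-throughput counterscreen run to flag cytotoxic compounds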
[23] = viability loss in Vero cells – cytotoxicity control for Vif-APOBEC3G degradation inhibitor project, dose response (AID 1117358); type: functional; conditions: Vero
[24] = Trypanosoma cruzi growth suppression in host cells – NIH3T3 host cells, beta-gal luminescence, confirmation (AID 2044); type: functional, cell-based;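 further: intracellular parasites grown in NIH/3T3 mouse fibroblasts as host cells; luminescent beta-galactosidase reporter signal from transgenic T. cruzi replicating inside host cells; inhibitors lower the luminescence signal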
[25] = toxicity toward HepG2 liver cells – cell-based, plate reader, cherry-pick, antagonist series, cytotoxicity control, dose response (AID 743416); type: functional
[26] = NIH3T3 cell viability loss – ATP luminescence, mouse fibroblasts, counter-screen, dose response (AID 2010); type: functional, cell-based;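 further: cells exposed to compound for about 90 hours before reading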
[27] = decrease of insulin promoter-GFP reporter – imaging, high-content screening, mouse beta cells (AID 1628); type: functional; conditions: MIN6
[28] = blockers of bursicon-stimulated LGR2 cAMP reporter – cell-based, HEK293, CRE-luciferase reporter, cherry pick, set 2, dose response (AID 743343); type: functional;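 further: transfected cells were stimulated with diluted bursicon conditioned medium after compound addition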
[29] = blockade of melanocortin 4 receptor signaling – cell-based, plate reader, cherry pick, counter-screen for LGR2 antagonist project, dose response (AID 743444); type: functional;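 further: transfected HEK 293 cells stimulated with alpha-MSH peptide; potency of inhibitors of the alpha-MSH evoked signal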
[30] = viability loss in HEK293 cells – cell-based, plate reader, cherry-picked samples, cytotoxicity control, dose response (AID 743446); type: functional
Cytochrome P450 2C9 = Cytochrome P450 2C9 (Homo sapiens, UniProt P11712)
[31] = IC50 of insulin release inhibition, rat insulinoma INS-1E line, 5 mM glucose, cell-based (AID 1117331); type: functional
[32] = target: Metabotropic glutamate receptor 5 (Rattus norvegicus, UniProt P31424); assay: Identification of a glycine sulfonamide based non-MPEP site positive allosteric potentiator (PAM) of mGlu5 (calcium_assay).; type: functional
[33] = inhibition of Env-driven cell fusion – HIV entry, plate reader, dry powder, dose response (AID 687023); type: functional, cell-based
[34] = viability loss in CEM21 cells – cell-based, plate reader, dry powder, cytotoxicity control, dose response (AID 687026); type: functional
[35] = target: T3, Disintegrin and metalloproteinase domain-containing protein 17 (Homo sapiens, UniProt P78536); assay: exosite inhibitors of ADAM17, dose response, biochemical (AID 743260)
[36] = target: T3, Disintegrin and metalloproteinase domain-containing protein 17; assay: inhibition of ADAM17 substrate cleavage – biochemical, quenched FRET substrate, counter-screen for ADAM10 exosite inhibitor project, dose response (AID 743253)
[37] = potency of ADAM10 substrate cleavage blockers – biochemical, QFRET, dose response (AID 743254);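 further: ADAM10 enzyme with the DM2 quenched FRET peptide as substrate; EDANS fluorescence gain as the protease cuts the substrate; inhibitor potency against ADAM10 proteolytic activity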
[38] = Dd2 parasite growth inhibition in erythrocytes – SYBR Green, dry powder samples, set 9, dose response (AID 1159568); type: functional, cell-based
[39] = toxicity to human HepG2 hepatoma cells – cell-based, plate reader, dry powder samples, cytotoxicity control, dose response (AID 1159569); type: functional;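 further: inhibitor potency with signal falling toward the positive control level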
[40] = growth inhibition of PfATP4-mutant resistant parasites – NITD609-resistant line, SYBR Green, dry powder, dose response (AID 1159571); type: functional, cell-based;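 further: parasites synchronized at ring stage by sorbitol before testing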
[41] = Dd2 malaria parasite growth inhibition potency – SYBR Green, dry powder samples, dose response (AID 1159566); type: functional, cell-based;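 further: potency for growth inhibition with lower SYBR green DNA signal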
[42] = growth inhibition of yeast DHODH-expressing 3D7 parasites – SYBR Green, dry powder samples, dose response (AID 1159570); type: functional, cell-based;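 further: parasite growth measured after 72 hours of compound exposure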
[43] = P. falciparum Dd2 growth inhibitors, dose response, SYBR Green, cherry-picked samples (AID 1159567); type: functional, cell-based
[44] = A549 lung cell viability reduction – CellTiter-Glo luminescence, cherry-pick, cytotoxicity control, dose response (AID 743484); type: functional, cell-based

T3 sequence (P78536 whole entry, the tested form may be a part): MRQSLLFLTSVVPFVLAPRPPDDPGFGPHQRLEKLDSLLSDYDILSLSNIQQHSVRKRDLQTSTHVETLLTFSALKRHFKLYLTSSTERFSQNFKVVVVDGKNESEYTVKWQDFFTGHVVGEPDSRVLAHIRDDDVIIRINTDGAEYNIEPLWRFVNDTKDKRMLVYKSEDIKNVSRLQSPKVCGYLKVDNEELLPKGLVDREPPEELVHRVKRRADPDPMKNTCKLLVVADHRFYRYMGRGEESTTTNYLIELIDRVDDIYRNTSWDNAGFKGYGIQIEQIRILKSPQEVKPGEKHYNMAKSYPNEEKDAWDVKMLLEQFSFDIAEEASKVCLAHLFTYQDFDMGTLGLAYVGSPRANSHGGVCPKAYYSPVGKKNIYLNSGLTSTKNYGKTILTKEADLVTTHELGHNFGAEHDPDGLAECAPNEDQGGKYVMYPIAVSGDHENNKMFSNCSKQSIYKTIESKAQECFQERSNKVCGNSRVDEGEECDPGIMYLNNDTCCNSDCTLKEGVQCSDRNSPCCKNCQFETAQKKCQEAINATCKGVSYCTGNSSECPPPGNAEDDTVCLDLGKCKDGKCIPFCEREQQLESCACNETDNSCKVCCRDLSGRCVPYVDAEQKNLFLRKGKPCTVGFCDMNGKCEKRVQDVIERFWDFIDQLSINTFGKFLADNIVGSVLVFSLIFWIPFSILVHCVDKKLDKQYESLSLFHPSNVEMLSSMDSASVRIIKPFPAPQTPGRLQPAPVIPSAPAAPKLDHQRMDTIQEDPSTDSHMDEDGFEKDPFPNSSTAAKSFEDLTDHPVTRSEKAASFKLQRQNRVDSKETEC
Chain of COUP transcription factor 2 (P24468 whole entry): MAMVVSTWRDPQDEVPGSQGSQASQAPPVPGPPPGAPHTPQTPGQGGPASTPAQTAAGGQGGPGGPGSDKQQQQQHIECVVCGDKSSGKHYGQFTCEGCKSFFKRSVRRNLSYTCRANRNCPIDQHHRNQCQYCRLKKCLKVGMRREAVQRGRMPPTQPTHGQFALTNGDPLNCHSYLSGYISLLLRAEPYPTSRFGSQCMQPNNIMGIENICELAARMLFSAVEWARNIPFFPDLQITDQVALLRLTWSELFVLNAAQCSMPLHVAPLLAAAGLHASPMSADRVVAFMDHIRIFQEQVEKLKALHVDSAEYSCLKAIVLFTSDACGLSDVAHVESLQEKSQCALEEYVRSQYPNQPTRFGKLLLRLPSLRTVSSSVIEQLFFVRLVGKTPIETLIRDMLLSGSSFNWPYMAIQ
Chain of Neurotensin receptor type 1 (P30989 whole entry): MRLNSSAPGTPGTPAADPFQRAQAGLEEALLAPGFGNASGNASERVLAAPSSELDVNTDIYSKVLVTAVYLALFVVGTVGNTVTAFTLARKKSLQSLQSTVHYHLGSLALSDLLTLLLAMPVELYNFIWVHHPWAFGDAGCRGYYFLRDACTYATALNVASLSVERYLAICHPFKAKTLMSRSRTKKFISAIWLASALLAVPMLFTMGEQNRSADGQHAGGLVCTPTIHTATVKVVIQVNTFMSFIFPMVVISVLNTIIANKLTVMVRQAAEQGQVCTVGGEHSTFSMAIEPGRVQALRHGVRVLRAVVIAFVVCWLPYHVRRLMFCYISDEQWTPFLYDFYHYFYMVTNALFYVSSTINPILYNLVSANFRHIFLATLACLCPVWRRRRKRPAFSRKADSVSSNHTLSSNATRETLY
Chain of NAD-dependent protein deacylase sirtuin-5, mitochondrial (Q9NXA8 whole entry): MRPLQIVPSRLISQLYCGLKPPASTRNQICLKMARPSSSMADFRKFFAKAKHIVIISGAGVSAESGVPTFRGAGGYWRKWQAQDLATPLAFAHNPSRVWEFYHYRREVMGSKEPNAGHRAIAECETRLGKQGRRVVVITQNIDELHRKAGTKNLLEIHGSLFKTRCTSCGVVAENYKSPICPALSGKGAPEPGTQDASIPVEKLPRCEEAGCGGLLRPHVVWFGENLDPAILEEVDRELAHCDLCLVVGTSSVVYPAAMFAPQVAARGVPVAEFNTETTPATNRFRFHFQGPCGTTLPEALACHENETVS
Chain of 1-phosphatidylinositol 4,5-bisphosphate phosphodiesterase beta-3 (Q01970 whole entry): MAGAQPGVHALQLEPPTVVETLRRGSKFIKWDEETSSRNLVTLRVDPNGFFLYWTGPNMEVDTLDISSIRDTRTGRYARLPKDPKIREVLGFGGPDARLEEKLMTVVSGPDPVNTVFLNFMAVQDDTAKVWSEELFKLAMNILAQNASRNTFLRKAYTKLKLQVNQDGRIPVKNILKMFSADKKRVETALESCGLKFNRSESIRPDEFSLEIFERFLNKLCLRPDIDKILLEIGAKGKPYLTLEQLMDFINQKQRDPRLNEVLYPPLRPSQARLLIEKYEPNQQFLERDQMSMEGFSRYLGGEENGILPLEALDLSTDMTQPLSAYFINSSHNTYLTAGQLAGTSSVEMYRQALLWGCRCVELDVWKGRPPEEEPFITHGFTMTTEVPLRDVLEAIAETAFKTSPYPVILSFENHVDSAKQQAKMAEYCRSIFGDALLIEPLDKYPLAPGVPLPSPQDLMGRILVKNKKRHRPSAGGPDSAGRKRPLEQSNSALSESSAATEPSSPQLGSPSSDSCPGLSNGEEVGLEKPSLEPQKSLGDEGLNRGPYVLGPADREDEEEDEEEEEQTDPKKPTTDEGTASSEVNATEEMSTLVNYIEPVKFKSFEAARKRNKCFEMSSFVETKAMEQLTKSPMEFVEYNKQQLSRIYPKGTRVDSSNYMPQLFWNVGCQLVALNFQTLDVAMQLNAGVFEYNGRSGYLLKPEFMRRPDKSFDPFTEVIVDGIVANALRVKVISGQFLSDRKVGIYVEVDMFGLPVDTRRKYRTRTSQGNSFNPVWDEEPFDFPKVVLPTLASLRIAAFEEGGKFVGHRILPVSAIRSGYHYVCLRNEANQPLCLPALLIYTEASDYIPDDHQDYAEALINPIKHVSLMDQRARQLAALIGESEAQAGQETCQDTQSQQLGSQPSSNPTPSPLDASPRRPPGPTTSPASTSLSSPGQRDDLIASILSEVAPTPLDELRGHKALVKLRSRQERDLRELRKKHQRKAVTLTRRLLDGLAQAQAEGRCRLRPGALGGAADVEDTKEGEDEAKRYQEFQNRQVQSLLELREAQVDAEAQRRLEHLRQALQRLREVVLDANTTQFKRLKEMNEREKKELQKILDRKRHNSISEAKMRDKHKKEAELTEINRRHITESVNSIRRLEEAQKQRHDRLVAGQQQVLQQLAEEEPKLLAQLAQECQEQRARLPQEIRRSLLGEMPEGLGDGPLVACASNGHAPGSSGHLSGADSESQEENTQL
Chain of Cytochrome P450 2C9 (P11712 whole entry): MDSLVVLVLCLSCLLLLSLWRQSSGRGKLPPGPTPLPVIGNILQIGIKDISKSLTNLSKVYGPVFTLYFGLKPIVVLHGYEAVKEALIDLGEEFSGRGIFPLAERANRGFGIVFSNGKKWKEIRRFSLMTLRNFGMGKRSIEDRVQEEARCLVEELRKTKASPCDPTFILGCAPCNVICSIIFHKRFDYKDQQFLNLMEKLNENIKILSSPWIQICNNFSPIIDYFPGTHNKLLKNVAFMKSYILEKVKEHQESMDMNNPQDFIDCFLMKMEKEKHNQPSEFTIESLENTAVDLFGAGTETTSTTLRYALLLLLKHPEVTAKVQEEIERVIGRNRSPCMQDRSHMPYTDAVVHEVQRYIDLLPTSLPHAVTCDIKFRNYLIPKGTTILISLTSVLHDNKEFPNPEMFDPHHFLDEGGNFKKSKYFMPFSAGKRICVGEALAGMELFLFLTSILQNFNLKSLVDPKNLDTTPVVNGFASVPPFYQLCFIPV
Chain of Metabotropic glutamate receptor 5 (P31424 whole entry, the tested form may be a part): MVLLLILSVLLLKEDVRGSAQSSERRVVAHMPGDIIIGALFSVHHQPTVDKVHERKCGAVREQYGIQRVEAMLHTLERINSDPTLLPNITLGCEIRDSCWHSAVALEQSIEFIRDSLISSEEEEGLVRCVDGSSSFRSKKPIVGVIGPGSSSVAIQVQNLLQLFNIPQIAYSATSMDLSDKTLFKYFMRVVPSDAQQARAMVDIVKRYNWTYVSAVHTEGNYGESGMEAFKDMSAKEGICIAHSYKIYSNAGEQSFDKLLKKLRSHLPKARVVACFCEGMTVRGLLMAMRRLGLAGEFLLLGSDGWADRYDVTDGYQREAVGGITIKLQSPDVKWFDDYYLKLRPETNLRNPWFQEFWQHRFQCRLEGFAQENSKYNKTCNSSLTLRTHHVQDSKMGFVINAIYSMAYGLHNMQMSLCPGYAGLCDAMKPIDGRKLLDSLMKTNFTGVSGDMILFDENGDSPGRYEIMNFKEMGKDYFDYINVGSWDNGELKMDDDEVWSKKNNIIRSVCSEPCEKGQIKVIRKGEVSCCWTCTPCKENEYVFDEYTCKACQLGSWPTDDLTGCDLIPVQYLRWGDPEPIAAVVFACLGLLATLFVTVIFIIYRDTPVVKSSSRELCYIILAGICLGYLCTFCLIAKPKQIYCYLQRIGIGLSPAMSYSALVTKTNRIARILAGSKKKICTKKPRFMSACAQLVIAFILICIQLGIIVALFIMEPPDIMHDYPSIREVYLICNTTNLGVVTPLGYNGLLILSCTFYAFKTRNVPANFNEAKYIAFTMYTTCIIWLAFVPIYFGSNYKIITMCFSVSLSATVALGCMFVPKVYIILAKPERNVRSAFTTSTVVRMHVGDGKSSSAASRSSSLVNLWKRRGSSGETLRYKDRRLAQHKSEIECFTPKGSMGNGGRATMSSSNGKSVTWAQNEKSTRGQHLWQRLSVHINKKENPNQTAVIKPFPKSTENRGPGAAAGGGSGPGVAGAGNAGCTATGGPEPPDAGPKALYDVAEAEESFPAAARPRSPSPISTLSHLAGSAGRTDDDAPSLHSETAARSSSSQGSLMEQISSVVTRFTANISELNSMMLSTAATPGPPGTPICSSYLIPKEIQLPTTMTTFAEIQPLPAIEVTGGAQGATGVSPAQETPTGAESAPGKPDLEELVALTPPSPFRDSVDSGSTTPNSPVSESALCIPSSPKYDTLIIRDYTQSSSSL

Cc1ccc(CNC(=O)CSc2c3c(nc4ccc(Cl)cc24)CCCC3)o1
AC50 [1]: 5.98 µM (active)
AC50 [2]: 10.7 µM (active)
AC50 [3]: 37.6 µM (active)

CCOC(=O)c1c(C)[nH]c(C(=O)OCC(=O)Nc2sccc2C(N)=O)c1C
EC50 [4]: > 195 µM (not active)
EC50 [5]: 3.35 µM (active)
IC50 [6]: 8.54 µM (active)

CCOC(=O)C1(CCOC)CCN(Cc2cnc(-c3cccc(C)c3)nc2)CC1
AC50 [7]: > 30 µM (inactive)
CC50 [8]: > 40 µM (active)

O=C(CCCN1C(=O)/C(=C/c2ccco2)SC1=S)Nc1cccc(C(=O)O)c1
IC50 [9]: > 122 µM (inactive)
AC50 [10]: > 20 µM (inactive)
IC50 [11]: > 122 µM (inactive)

COc1ccc([C@@H]2CC=C(C(=O)O)[C@H](c3ccccc3F)N2S(=O)(=O)c2ccccc2C)cc1
EC50 (Transthyretin): > 167 µM (inactive)

CC(C)Cc1ccc(C(C)C(=N)NCCc2ccccc2)cc1 (stereo unspecified)
AC50 [12]: 2.78 µM (active)
IC50 [13]: 3.3 µM (active)
EC50 (HEK293 [14]): > 59.7 µM (inactive)
AC50 [15]: 4.62 µM (active)
CC50 [16]: 12.1 µM (active)
EC50 (HEK293 [17]): > 59.7 µM (inactive)
AC50 [18]: 14.3 µM (active)
IC50 [19]: > 96.6 µM (inactive)
AC50 [20]: 7.77 µM (active)
AC50 [21]: 21.6 µM (active)

Cc1cc(C)c(Cc2c(C)nc3c(C(=O)NCc4ccco4)cnn3c2C)c(C)c1
IC50 [22]: 1.42 µM (active)
CC50 [23]: > 40 µM (active)
EC50 [24]: 2.67 µM (active)
AC50 [25]: 32.9 µM (active)
EC50 [26]: > 60 µM (not active)
IC50 [27]: 1.51 µM (active)
AC50 [28]: 19.9 µM (active)
AC50 [29]: 55.6 µM (active)
AC50 [30]: 50 µM (active)

COc1ccccc1N1CCN(CCCCNC(=O)c2ccc(-c3ccc(C(C)=O)cc3)cc2)CC1
AC50 (Cytochrome P450 2C9): inconclusive
IC50 [31]: > 33.3 µM (inactive)

CC(C)N(CC(=O)Nc1ccccc1)S(C)(=O)=O
EC50 [32]: 10 µM (inconclusive)

CCCOc1ccc(S(=O)(=O)NCc2cccnc2)cc1
AC50 [33]: 13.1 µM (active) and 17.6 µM (active)
AC50 [34]: > 70 µM (inactive)

CC(=NNC(=O)CSc1nnc(-c2ccc(C(C)(C)C)cc2)n1-c1ccccc1)c1cccc2ccccc12
IC50 [35]: > 69.5 µM (inactive)
IC50 [36]: > 69.5 µM (inactive)
IC50 [37]: > 69.5 µM (inactive)

CCCNC(=O)N1[C@H](C#N)[C@H](c2ccc(-c3ccccc3F)cc2)[C@@H]1CO
AC50 [38]: 0.608 µM (active)
AC50 [39]: 1.6 µM (active)
AC50 [40]: 0.511 µM (active)
AC50 [41]: 0.377 µM (active)
AC50 [42]: 6.61 µM (active)
AC50 [43]: 0.522 µM (active)

CSc1nc(N)nc(SC2C=CCCC2)c1C#N (stereo unspecified)
AC50 [44]: > 52 µM (inactive)
